“And” between values parts separate entries of the source, which are not always exact repeats. Equal entries are not always repeated.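 48-hour exposure; five concentrations; linearly interpolated endpoints. Here, GI50 denotes the concentration required for 50% inhibition of growth.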 The source made the active and inactive calls. No stated cut-off is given here; in the data, active = GI50 up to about 1.1 µM and inactive = higher. Residues, ends and D or L forms follow the SMILES beside them. *: point of attachment. Boc = CC(C)(C)OC(=O)*
Assays:
Assay in all cases: DTP human tumour cell line panel, 48 h
NCI-H460 = tested on: NCI-H460
SN12C = tested on: SN12C
SNB-19 = tested on: SNB-19
MOLT-4 = tested on: MOLT-4
COLO 205 = tested on: COLO 205
IGROV-1 = tested on: IGROV-1
RPMI-8226 = tested on: RPMI-8226
NCI-H522 = tested on: NCI-H522
HCT-116 = tested on: HCT-116
LOX IMVI = tested on: LOX IMVI
SK-MEL-28 = tested on: SK-MEL-28
UO-31 = tested on: UO-31
SR = tested on: SR
SW-620 = tested on: SW-620
KM12 = tested on: KM12
NCI-H226 = tested on: NCI-H226
SF-295 = tested on: SF-295
A549 = tested on: A549
HCC 2998 = tested on: HCC 2998
K562 = tested on: K562

SMILES	GI50 (NCI-H460)	GI50 (SN12C)	GI50 (SNB-19)	GI50 (MOLT-4)	GI50 (COLO 205)	GI50 (IGROV-1)	GI50 (RPMI-8226)	GI50 (NCI-H522)	GI50 (HCT-116)	GI50 (LOX IMVI)	GI50 (SK-MEL-28)	GI50 (UO-31)	GI50 (SR)	GI50 (SW-620)	GI50 (KM12)	GI50 (NCI-H226)	GI50 (SF-295)	GI50 (A549)	GI50 (HCC 2998)	GI50 (K562)
S=c1sc2c(Cl)ncnc2n1-c1ccccc1	15.7 µM (inactive)	15.8 µM (inactive)	18.2 µM (inactive)	18.2 µM (inactive)	14 µM (inactive)	15 µM (inactive)	23.8 µM (inactive)	2.01 µM (inactive)	5.66 µM (inactive)	4.28 µM (inactive)	11.2 µM (inactive)	18.7 µM (inactive)	3.27 µM (inactive)	17.4 µM (inactive)	17.2 µM (inactive)	13.4 µM (inactive)	12.8 µM (inactive)	28.8 µM (inactive)	17.1 µM (inactive)	–
O=C1NC(=S)N/C1=C\c1ccc(Br)s1	70.5 µM (inactive)	> 100 µM (inactive)	90.2 µM (inactive)	21.4 µM (inactive)	> 100 µM (inactive)	93.5 µM (inactive)	27.7 µM (inactive)	82.8 µM (inactive)	> 100 µM (inactive)	> 100 µM (inactive)	> 100 µM (inactive)	55.2 µM (inactive)	33.4 µM (inactive)	> 100 µM (inactive)	> 100 µM (inactive)	84.9 µM (inactive)	> 100 µM (inactive)	–	57.8 µM (inactive)	34.8 µM (inactive)
CC1C(c2ccccc2)=CCON1c1ccccc1 (stereo not drawn)	> 100 µM (inactive)	> 100 µM (inactive)	> 100 µM (inactive)	> 100 µM (inactive)	> 100 µM (inactive)	> 100 µM (inactive)	> 100 µM (inactive)	> 100 µM (inactive)	> 100 µM (inactive)	> 100 µM (inactive)	> 100 µM (inactive)	> 100 µM (inactive)	> 100 µM (inactive)	> 100 µM (inactive)	> 100 µM (inactive)	> 100 µM (inactive)	> 100 µM (inactive)	> 100 µM (inactive)	> 100 µM (inactive)	> 100 µM (inactive)
CC(=O)OC(C)(C)/N=N/c1ccc(Br)cc1	0.946 µM (active)	32.7 µM (inactive)	> 68.2 µM (inactive)	3.56 µM (inactive)	0.52 µM (active)	18.7 µM (inactive)	0.942 µM (active)	9.4 µM (inactive)	0.851 µM (active)	3.09 µM (inactive)	3.01 µM (inactive)	0.425 µM (active)	0.475 µM (active)	48.2 µM (inactive)	5.79 µM (inactive)	2.96 µM (inactive)	0.153 µM (active)	6.04 µM (inactive)	16.6 µM (inactive)	0.0596 µM (active)
CC(=O)c1c2c(cc3c1CC1(Cc4cc5c(cc4C1)CCCC5)C3)CCCC2	–	> 100 µM (inactive)	–	12.1 µM (inactive)	77.1 µM (inactive)	45 µM (inactive)	11.8 µM (inactive)	20.9 µM (inactive)	> 100 µM (inactive)	55.1 µM (inactive)	–	0.438 µM (active)	2.05 µM (inactive)	–	> 100 µM (inactive)	43.5 µM (inactive)	37.2 µM (inactive)	> 100 µM (inactive)	> 100 µM (inactive)	9.66 µM (inactive)
CC(=O)OC1=C(c2ccccc2)S(=O)(=O)c2ccccc21	> 100 µM (inactive)	–	> 100 µM (inactive)	> 100 µM (inactive)	> 100 µM (inactive)	> 100 µM (inactive)	> 100 µM (inactive)	> 100 µM (inactive)	> 100 µM (inactive)	> 100 µM (inactive)	> 100 µM (inactive)	> 100 µM (inactive)	> 100 µM (inactive)	> 100 µM (inactive)	> 100 µM (inactive)	> 100 µM (inactive)	> 100 µM (inactive)	> 100 µM (inactive)	> 100 µM (inactive)	> 100 µM (inactive)
Cc1ccc(NCC(=O)N2CC(=O)Nc3ccccc32)c(C)c1	> 100 µM (inactive)	> 100 µM (inactive)	> 100 µM (inactive)	> 100 µM (inactive)	> 100 µM (inactive)	–	> 100 µM (inactive)	> 100 µM (inactive)	> 100 µM (inactive)	> 100 µM (inactive)	> 100 µM (inactive)	> 100 µM (inactive)	> 100 µM (inactive)	> 100 µM (inactive)	> 100 µM (inactive)	> 100 µM (inactive)	> 100 µM (inactive)	> 100 µM (inactive)	> 100 µM (inactive)	> 100 µM (inactive)
Cc1ccccc1/N=N/c1c(-c2ccccc2)nn(C(=O)CC(=O)Nc2cccc(Cl)c2)c1-c1ccccc1	19.6 µM (inactive)	15.8 µM (inactive)	36.4 µM (inactive)	13 µM (inactive)	14.9 µM (inactive)	> 31.6 µM (inactive)	12.1 µM (inactive)	> 10 µM (inactive)	13.4 µM (inactive)	15.3 µM (inactive)	> 31.5 µM (inactive)	14.5 µM (inactive)	9.1 µM (inactive)	3.16 µM (inactive)	–	16 µM (inactive)	22 µM (inactive)	> 10 µM (inactive)	22.2 µM (inactive)	16.8 µM (inactive)
COC(=O)C(CCCCCCCC(C(=O)OC)C1=Nc2nnc(N)n2C1=O)C1=Nc2nnc(N)n2C1=O (stereo not drawn)	> 100 µM (inactive)	> 100 µM (inactive)	> 100 µM (inactive)	> 100 µM (inactive)	> 100 µM (inactive)	> 100 µM (inactive)	4.07 µM (inactive)	> 100 µM (inactive)	> 100 µM (inactive)	> 100 µM (inactive)	> 100 µM (inactive)	> 100 µM (inactive)	> 100 µM (inactive)	> 100 µM (inactive)	> 100 µM (inactive)	> 100 µM (inactive)	61.9 µM (inactive)	> 100 µM (inactive)	> 100 µM (inactive)	–
COc1ccc(C(=O)O/N=C2/CCCCC2CN(C)C)cc1 (stereo not drawn)	> 100 µM (inactive)	> 100 µM (inactive)	–	> 100 µM (inactive)	> 100 µM (inactive)	> 100 µM (inactive)	> 100 µM (inactive)	> 100 µM (inactive)	> 100 µM (inactive)	> 100 µM (inactive)	> 100 µM (inactive)	> 100 µM (inactive)	> 100 µM (inactive)	> 100 µM (inactive)	> 100 µM (inactive)	> 100 µM (inactive)	> 100 µM (inactive)	> 100 µM (inactive)	> 100 µM (inactive)	> 100 µM (inactive)
COc1ccc(C(OCC2OC(n3ccc(NC(=O)c4ccccc4)nc3=O)C(O)C2O)(c2ccccc2)c2ccccc2)cc1 (stereo not drawn)	1.98 µM (inactive)	1.82 µM (inactive)	3.44 µM (inactive)	2.1 µM (inactive)	2 µM (inactive)	2.08 µM (inactive)	2.42 µM (inactive)	2.48 µM (inactive)	1.75 µM (inactive)	–	2.72 µM (inactive)	3.42 µM (inactive)	2.39 µM (inactive)	3.13 µM (inactive)	21.1 µM (inactive)	2.61 µM (inactive)	1.95 µM (inactive)	4.06 µM (inactive)	3.4 µM (inactive)	2.38 µM (inactive)
COc1ccccc1/C=N/C12CC3CC(CC(C3)C1)C2	> 100 µM (inactive)	> 100 µM (inactive)	> 100 µM (inactive)	> 100 µM (inactive)	> 100 µM (inactive)	–	> 100 µM (inactive)	> 100 µM (inactive)	> 10 µM (inactive)	> 100 µM (inactive)	> 100 µM (inactive)	> 100 µM (inactive)	> 100 µM (inactive)	> 100 µM (inactive)	> 100 µM (inactive)	> 10 µM (inactive)	> 100 µM (inactive)	> 100 µM (inactive)	> 100 µM (inactive)	32.4 µM (inactive)
Nc1nc(O)nc2snnc12	> 100 µM (inactive)	> 27.4 µM (inactive)	> 87.9 µM (inactive)	7.6 µM (inactive)	> 100 µM (inactive)	> 100 µM (inactive)	5.7 µM (inactive)	> 100 µM (inactive)	7.89 µM (inactive)	2.92 µM (inactive)	6.27 µM (inactive)	3.99 µM (inactive)	9.46 µM (inactive)	5.4 µM (inactive)	> 100 µM (inactive)	> 36.1 µM (inactive)	33.2 µM (inactive)	> 100 µM (inactive)	> 65.6 µM (inactive)	7.26 µM (inactive)
O=c1ncccn1[C@@H]1O[C@H](CO)[C@@H](O)[C@@H]1F	–	> 100 µM (inactive)	> 100 µM (inactive)	> 100 µM (inactive)	> 100 µM (inactive)	> 100 µM (inactive)	> 100 µM (inactive)	> 100 µM (inactive)	–	> 100 µM (inactive) and > 59.2 µM (inactive)	> 64 µM (inactive)	–	> 68.2 µM (inactive)	–	–	> 100 µM (inactive)	> 100 µM (inactive)	> 100 µM (inactive)	> 100 µM (inactive)	–
COC(=O)C(Cc1c[nH]c2ccccc12)NC(=O)C(Cc1c[nH]c2ccccc12)NC(=O)C(Cc1c[nH]c2ccccc12)NC(=O)C(Cc1c[nH]c2ccccc12)NC(=O)C(Cc1c[nH]c2ccccc12)NC(=O)C(Cc1c[nH]c2ccccc12)NC(=O)OC(C)(C)C (stereo not drawn) (Boc-WWWWWW-OMe; configuration not given here)	> 100 µM (inactive)	49.9 µM (inactive)	47.3 µM (inactive)	63.4 µM (inactive)	–	36.9 µM (inactive)	57 µM (inactive)	28.1 µM (inactive)	37.3 µM (inactive)	38.1 µM (inactive)	14.4 µM (inactive)	33 µM (inactive)	82.4 µM (inactive)	> 100 µM (inactive)	–	64 µM (inactive)	–	31.7 µM (inactive)	> 100 µM (inactive)	> 100 µM (inactive)

— ChEMBL document CHEMBL1201862, “PubChem BioAssay data set” (2004)
